Several values for one entry are separate records, joined by “and”; a condition that tells them apart may be missing. Equal entries are not always repeated.
System: 324938-238-R-J1-PDC complex spheroids viability
Test: Anticancer human tumor 324938-238-R-J1-PDC patient-derived bladder carcinoma cell line growth inhibition [CLK]
Details: for viability, T/C: stronger effect = lower value
How it was run: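 Patient-derived tumor cells grown as complex spheroids with HUVEC endothelial cells and mesenchymal stem cells, treated with drug combinations. Concentrations descend in half-log steps from near clinical Cmax, or from 10 microM if Cmax unknown.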

[1] = curve of first compound, second compound 0.0316 µM
[2] = curve of first compound, second compound 0.1 µM
[3] = curve of first compound, second compound 0.316 µM
[4] = curve of first compound, second compound 1 µM
[5] = curve of first compound, second compound 3.16 µM
[6] = curve of first compound, second compound 10 µM
[7] = second compound 0.0316 µM, first compound 0.0316 µM
[8] = second compound 0.0316 µM, first compound 0.1 µM
[9] = second compound 0.0316 µM, first compound 0.316 µM
[10] = second compound 0.0316 µM, first compound 1 µM
[11] = second compound 0.1 µM, first compound 0.0316 µM
[12] = second compound 0.1 µM, first compound 0.1 µM
[13] = second compound 0.1 µM, first compound 0.316 µM
[14] = second compound 0.1 µM, first compound 1 µM
[15] = second compound 0.316 µM, first compound 0.0316 µM
[16] = second compound 0.316 µM, first compound 0.1 µM
[17] = second compound 0.316 µM, first compound 0.316 µM
[18] = second compound 0.316 µM, first compound 1 µM
[19] = second compound 1 µM, first compound 0.0316 µM
[20] = second compound 1 µM, first compound 0.1 µM
[21] = second compound 1 µM, first compound 0.316 µM
[22] = second compound 1 µM, first compound 1 µM
[23] = second compound 3.16 µM, first compound 0.0316 µM
[24] = second compound 3.16 µM, first compound 0.1 µM
[25] = second compound 3.16 µM, first compound 0.316 µM
[26] = second compound 3.16 µM, first compound 1 µM
[27] = second compound 10 µM, first compound 0.0316 µM
[28] = second compound 10 µM, first compound 0.1 µM
[29] = second compound 10 µM, first compound 0.316 µM
[30] = second compound 10 µM, first compound 1 µM
[31] = second compound 0.0316 µM, first compound 3.16 µM
[32] = second compound 0.0316 µM, first compound 10 µM
[33] = second compound 0.1 µM, first compound 3.16 µM
[34] = second compound 0.1 µM, first compound 10 µM
[35] = second compound 0.316 µM, first compound 3.16 µM
[36] = second compound 0.316 µM, first compound 10 µM
[37] = second compound 1 µM, first compound 3.16 µM
[38] = second compound 1 µM, first compound 10 µM
[39] = second compound 3.16 µM, first compound 3.16 µM
[40] = second compound 3.16 µM, first compound 10 µM
[41] = second compound 10 µM, first compound 3.16 µM
[42] = second compound 10 µM, first compound 10 µM
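Further: viability read after seven days of drug exposure.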
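Wherever viability, T/C is given: 100% = DMSO vehicle control wells.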

CCc1c2c(nc3ccc(O)cc13)-c1cc3c(c(=O)n1C2)COC(=O)[C@]3(O)CC + CN1CCN(c2cc(C(=O)Nc3cc4cc(-c5cnn(C)c5)ccc4cn3)ccn2)CC1
IC50 [1]: < 3.16 nM
IC50 [2]: < 3.16 nM
IC50 [3]: < 3.16 nM
IC50 [4]: < 3.16 nM
IC50 [5]: < 3.16 nM
IC50 [6]: < 3.16 nM
viability, T/C (second compound 0.0316 µM, first compound 0.00316 µM): 14.9%
viability, T/C (second compound 0.0316 µM, first compound 0.01 µM): 10.1%
viability, T/C [7]: 11.5%
viability, T/C [8]: 9.42%
viability, T/C [9]: 8.03%
viability, T/C [10]: 1.47%
viability, T/C (second compound 0.1 µM, first compound 0.00316 µM): 12.7%
viability, T/C (second compound 0.1 µM, first compound 0.01 µM): 10.3%
viability, T/C [11]: 8.87%
viability, T/C [12]: 8.12%
viability, T/C [13]: 6.95%
viability, T/C [14]: 1.21%
viability, T/C (second compound 0.316 µM, first compound 0.00316 µM): 10.5%
viability, T/C (second compound 0.316 µM, first compound 0.01 µM): 7.5%
viability, T/C [15]: 4.44%
viability, T/C [16]: 3.89%
viability, T/C [17]: 0.83%
viability, T/C [18]: 0.18%
viability, T/C (second compound 1 µM, first compound 0.00316 µM): 0.42%
viability, T/C (second compound 1 µM, first compound 0.01 µM): 0.28%
viability, T/C [19]: 0.24%
viability, T/C [20]: 0.06%
viability, T/C [21]: 0.09%
viability, T/C [22]: 0.38%
viability, T/C (second compound 3.16 µM, first compound 0.00316 µM): 0.16%
viability, T/C (second compound 3.16 µM, first compound 0.01 µM): 0.17%
viability, T/C [23]: 0.19%
viability, T/C [24]: 0.1%
viability, T/C [25]: 0.16%
viability, T/C [26]: 0.14%
viability, T/C (second compound 10 µM, first compound 0.00316 µM): 0.1%
viability, T/C (second compound 10 µM, first compound 0.01 µM): 0.11%
viability, T/C [27]: 0.17%
viability, T/C [28]: 0.11%
viability, T/C [29]: 0.16%
viability, T/C [30]: 0.16%

COC1C=CCC(C)C(C)S(=O)(=O)NC(=O)c2ccc3c(c2)N(CC2CCC21)CC1(CCCc2cc(Cl)ccc21)CO3 (centres undefined) + CN1CCN(c2cc(C(=O)Nc3cc4cc(-c5cnn(C)c5)ccc4cn3)ccn2)CC1
IC50 [1]: 440 nM
IC50 [2]: 292 nM
IC50 [3]: < 31.6 nM
IC50 [4]: < 31.6 nM
IC50 [5]: < 31.6 nM
IC50 [6]: < 31.6 nM
viability, T/C [7]: 86.6%
viability, T/C [8]: 87.2%
viability, T/C [9]: 57.6%
viability, T/C [10]: 27.6%
viability, T/C [31]: 17.9%
viability, T/C [32]: 11.9%
viability, T/C [11]: 57.9%
viability, T/C [12]: 52.9%
viability, T/C [13]: 50.4%
viability, T/C [14]: 25.9%
viability, T/C [33]: 18.4%
viability, T/C [34]: 13.9%
viability, T/C [15]: 26.2%
viability, T/C [16]: 26%
viability, T/C [17]: 23.1%
viability, T/C [18]: 13.1%
viability, T/C [35]: 10.5%
viability, T/C [36]: 8.58%
viability, T/C [19]: 1.66%
viability, T/C [20]: 1.72%
viability, T/C [21]: 1.35%
viability, T/C [22]: 0.96%
viability, T/C [37]: 0.86%
viability, T/C [38]: 0.63%
viability, T/C [23]: 0.44%
viability, T/C [24]: 0.47%
viability, T/C [25]: 0.28%
viability, T/C [26]: 0.21%
viability, T/C [39]: 0.22%
viability, T/C [40]: 0.36%
viability, T/C [27]: 0.19%
viability, T/C [28]: 0.17%
viability, T/C [29]: 0.21%
viability, T/C [30]: 0.19%
viability, T/C [41]: 0.25%
viability, T/C [42]: 0.25%

COc1ccc([C@@H](O)c2cc(-c3ncnc4cc(N5CCOCC5)ccc34)c(F)cc2Cl)nn1 + CN1CCN(c2cc(C(=O)Nc3cc4cc(-c5cnn(C)c5)ccc4cn3)ccn2)CC1
IC50 [1]: 2010 nM
IC50 [2]: 57.5 nM
IC50 [3]: < 31.6 nM
IC50 [4]: < 31.6 nM
IC50 [5]: < 31.6 nM
IC50 [6]: < 31.6 nM
viability, T/C [7]: 72%
viability, T/C [8]: 78.8%
viability, T/C [9]: 65.8%
viability, T/C [10]: 59.8%
viability, T/C [31]: 44.1%
viability, T/C [32]: 34.7%
viability, T/C [11]: 53%
viability, T/C [12]: 48%
viability, T/C [13]: 40.3%
viability, T/C [14]: 44.5%
viability, T/C [33]: 37.8%
viability, T/C [34]: 30.9%
viability, T/C [15]: 19.6%
viability, T/C [16]: 21.9%
viability, T/C [17]: 21.4%
viability, T/C [18]: 20.2%
viability, T/C [35]: 19%
viability, T/C [36]: 18.9%
viability, T/C [19]: 0.42%
viability, T/C [20]: 0.46%
viability, T/C [21]: 0.79%
viability, T/C [22]: 0.47%
viability, T/C [37]: 1.14%
viability, T/C [38]: 0.71%
viability, T/C [23]: 0.13%
viability, T/C [24]: 0.16%
viability, T/C [25]: 0.28%
viability, T/C [26]: 0.12%
viability, T/C [39]: 0.24%
viability, T/C [40]: 0.29%
viability, T/C [27]: 0.06%
viability, T/C [28]: 0.14%
viability, T/C [29]: 0.25%
viability, T/C [30]: 0.13%
viability, T/C [41]: 0.31%
viability, T/C [42]: 0.58%

CC1COCCN1c1cc(C2(S(C)(=N)=O)CC2)nc(-c2ccnc3[nH]ccc23)n1 (centres undefined) + CN1CCN(c2cc(C(=O)Nc3cc4cc(-c5cnn(C)c5)ccc4cn3)ccn2)CC1
IC50 [1]: 1100 nM
IC50 [2]: 400 nM
IC50 [3]: < 31.6 nM
IC50 [4]: < 31.6 nM
IC50 [5]: < 31.6 nM
IC50 [6]: < 31.6 nM
viability, T/C [7]: 80.1%
viability, T/C [8]: 79.7%
viability, T/C [9]: 70%
viability, T/C [10]: 51.8%
viability, T/C [31]: 28.8%
viability, T/C [32]: 14.8%
viability, T/C [11]: 55.3%
viability, T/C [12]: 52.7%
viability, T/C [13]: 55.3%
viability, T/C [14]: 39.8%
viability, T/C [33]: 22.9%
viability, T/C [34]: 11.5%
viability, T/C [15]: 24.8%
viability, T/C [16]: 24.1%
viability, T/C [17]: 19%
viability, T/C [18]: 21.9%
viability, T/C [35]: 16.1%
viability, T/C [36]: 11.4%
viability, T/C [19]: 1.54%
viability, T/C [20]: 1.37%
viability, T/C [21]: 1.72%
viability, T/C [22]: 1.08%
viability, T/C [37]: 1.06%
viability, T/C [38]: 0.6%
viability, T/C [23]: 0.25%
viability, T/C [24]: 0.15%
viability, T/C [25]: 0.19%
viability, T/C [26]: 0.16%
viability, T/C [39]: 0.16%
viability, T/C [40]: 1.37%
viability, T/C [27]: 0.16%
viability, T/C [28]: 0.17%
viability, T/C [29]: 0.21%
viability, T/C [30]: 0.16%
viability, T/C [41]: 0.22%
viability, T/C [42]: 0.22%

CC1COCCN1c1cc(C2(S(C)(=N)=O)CC2)nc(-c2ccnc3[nH]ccc23)n1 (centres undefined)
viability, T/C (compound 0.0316 µM): 85.2% and 72.7%
viability, T/C (compound 0.1 µM): 86.7% and 79%
viability, T/C (compound 0.316 µM): 73.1% and 77.7%
viability, T/C (compound 1 µM): 68.5% and 59.5%
viability, T/C (compound 3.16 µM): 33.5% and 27.7%
viability, T/C (compound 10 µM): 14.9% and 13%
IC50 (curve of compound): 1780 nM and 1440 nM

CC(=O)O[C@H]1C(=O)[C@@]2(C)[C@H]([C@H](OC(=O)c3ccccc3)[C@]3(O)C[C@H](OC(=O)[C@H](O)[C@@H](NC(=O)c4ccccc4)c4ccccc4)C(C)=C1C3(C)C)[C@]1(OC(C)=O)CO[C@@H]1C[C@@H]2O
viability, T/C (compound 0.0316 µM): 12.8% and 11.6%
viability, T/C (compound 0.1 µM): 12%
viability, T/C (compound 0.316 µM): 11.3% and 13.4%
viability, T/C (compound 1 µM): 12.2% and 10.1%
viability, T/C (compound 3.16 µM): 13.7% and 12.3%
viability, T/C (compound 10 µM): 15.3% and 14.2%
IC50 (curve of compound): < 31.6 nM

Nc1ccn(C2OC(CO)C(O)C2(F)F)c(=O)n1 (centres undefined) + CN1CCN(c2cc(C(=O)Nc3cc4cc(-c5cnn(C)c5)ccc4cn3)ccn2)CC1
IC50 [1]: < 31.6 nM
IC50 [2]: < 31.6 nM
IC50 [3]: < 31.6 nM
IC50 [4]: < 31.6 nM
IC50 [5]: < 31.6 nM
IC50 [6]: < 31.6 nM
viability, T/C [7]: 31.4%
viability, T/C [8]: 16.4%
viability, T/C [9]: 11.3%
viability, T/C [10]: 11.3%
viability, T/C [31]: 6.96%
viability, T/C [32]: 6.17%
viability, T/C [11]: 25.3%
viability, T/C [12]: 14.2%
viability, T/C [13]: 11.5%
viability, T/C [14]: 10.8%
viability, T/C [33]: 5.43%
viability, T/C [34]: 4.89%
viability, T/C [15]: 18.9%
viability, T/C [16]: 12.7%
viability, T/C [17]: 10.2%
viability, T/C [18]: 8.86%
viability, T/C [35]: 5.88%
viability, T/C [36]: 1.97%
viability, T/C [19]: 0.83%
viability, T/C [20]: 0.6%
viability, T/C [21]: 0.57%
viability, T/C [22]: 0.45%
viability, T/C [37]: 0.37%
viability, T/C [38]: 0.22%
viability, T/C [23]: 0.13%
viability, T/C [24]: 0.16%
viability, T/C [25]: 0.15%
viability, T/C [26]: 0.12%
viability, T/C [39]: 0.14%
viability, T/C [40]: 0.19%
viability, T/C [27]: 0.11%
viability, T/C [28]: 0.12%
viability, T/C [29]: 0.19%
viability, T/C [30]: 0.12%
viability, T/C [41]: 0.17%
viability, T/C [42]: 0.16%

Source: PubChem BioAssay AID2060621 (Molecular Pharmacology Branch, DTP, NCI, 2025)
